We go through 14 molecules from EP2030621A1, “Novel substituted pyrimidines as cysteine protease inhibitors” (GLAXO GROUP LIMITED, priority 2007, dated 2009).

One experiment addresses Falcipain-3 (Plasmodium falciparum, UniProt Q8IIL0). In words: Falcipain-3 enzymatic assay (fluorogenic peptide substrate, quenched endpoint read). It is filed as biochemical. As for the experimental part: (§1) 1 Determination of Falcipain-2, Falcipain-3, Vivapain-2, Cathepsin K Cathepsin S, Cathepsin L, and Cathepsin B proteolytic catalytic activity
(§2) Assays for Falcipain-2, Faicipain-3, and Vivapain-2 are carried out with parasitic recombinant enzymes. Cathepsins K, S, L, and B are carried out with human recombinant enzymes. Standard assay conditions for the determination of kinetic constants used a fluorogenic peptide substrate, typically H-D-VLR-AFC (Falcipain-2, Falcipain-3, Vivapain-2), Z-FR-AFC (Cathepsin K, L, B), or KQKLR-AMC (Cathepsin S) and are determined in 100 mM sodium acetate, pH 5.5, containing 10 mM DTT and 0.5 mM CHAPS (Falcipain-2, Falcipain-3, Vivapain-2), and 100 mM sodium acetate, pH 5.5, containing 5 mM L-cysteine, 1mM CHAPS and 5mM EDTA (Cathepsin K, L, B), or 50mM MES, pH 6.5, containing 0.5mM CHAPS, 10mM L-CYS, 5mM EDTA (Cathepsin S). Stock substrate solutions are prepared at 20 mM in DMSO. The activity assays contained 30 uM substrate (Falcipain-2, Falcipain-3, Vivapain-2), 20 uM substrate (Cathepsin K), 25uM substrate (Cathepsin B), 5uM substrate (Cathepsin L), and 30uM substrate (Cathepsin S). All assays contained 1% DMSO. […] All assays are conducted at ambient temperature as end point assays being quenched after 60 minutes with the exception of Cathepsin S at 90 minutes, with 16.6 uM E-64 in 1% DMSO. Product formation (AFC or AMC) is determined from fluorescence (excitation at 405nm; emission at 530nm, AFC, or excitation at 360 nm; emission at 460 nm, AMC) monitored with a LJL Aquest (Molecular Devices) fluorescent plate reader. In the case of kinetic reads (used in mechanism of action studies), the reaction is not quenched but is read in the plate reader every 3 minutes for approximately 90 minutes. In addition, the mechanism of action studies for Falcipain-2 utilize Z-LR-AMC as the substrate. Product formation is determined from the fluorescence of AMC, measured with a LJL Acquest (Molecular Devices) fluorescent plate reader (excitation at 360nm; emission at 460nm).
(§3) Potential inhibitors are evaluated using the quenched read (endpoint) method. Assays are carried out in the presence of variable concentrations of test compound. Reactions are initiated by addition of enzyme and substrate to wells containing inhibitor stamped in 100% DMSO. For endpoint assays, the reaction is quenched with the addition of E64. Dose response data is fit to an IC50 curve with preset fitting tools according to equation 1: y = a + (b-a)/(1 + (10^x /10^c ())^d ) [formula] where y is the response at a particular inhibitor concentration x, a is the minimum response value, b is the maximum response value, c is the IC50, and d is the slope of the IC50 curve. […]. For a more direct measurement of the KI and the binding mechanism, we performed mechanism of action studies that included a titration of substrate and inhibitor with a kinetic read. […]

Experiment [1] has as its system Plasmodium falciparum parasite. In words: Whole cell assay: whole cell activity against the parasite. Format: cell-based.
A further experiment has as its target Falcipain-2 (Plasmodium falciparum, UniProt Q8I6U4). In words: Falcipain-2 enzymatic assay (fluorogenic peptide substrate, quenched endpoint read). It is filed as biochemical. As for the experimental part:
as §1, §2, §3

The mark [2] stands for this setting: parasitic recombinant enzyme, 30 uM H-D-VLR-AFC, pH 5.5, quenched after 60 minutes, read-out: Falcipain-3 (IC50).
Setting [3] is: parasitic recombinant enzyme, 30 uM H-D-VLR-AFC, pH 5.5, quenched after 60 minutes, read-out: Falcipain-2 (IC50).

Structures are written as SMILES. Structures can show the parent of a compound that is named as a salt. Where two headings read alike, the source gives them in different places.

Sequence of Falcipain-3 (Q8IIL0 243-492): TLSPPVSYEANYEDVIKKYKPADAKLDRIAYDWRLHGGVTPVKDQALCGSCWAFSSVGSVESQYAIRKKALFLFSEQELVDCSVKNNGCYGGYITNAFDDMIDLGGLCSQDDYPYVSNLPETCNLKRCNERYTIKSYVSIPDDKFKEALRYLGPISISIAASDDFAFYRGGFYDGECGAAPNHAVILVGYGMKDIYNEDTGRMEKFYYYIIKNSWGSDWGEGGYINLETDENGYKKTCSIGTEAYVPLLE
Sequence of Falcipain-2 (Q8I6U4 244-484): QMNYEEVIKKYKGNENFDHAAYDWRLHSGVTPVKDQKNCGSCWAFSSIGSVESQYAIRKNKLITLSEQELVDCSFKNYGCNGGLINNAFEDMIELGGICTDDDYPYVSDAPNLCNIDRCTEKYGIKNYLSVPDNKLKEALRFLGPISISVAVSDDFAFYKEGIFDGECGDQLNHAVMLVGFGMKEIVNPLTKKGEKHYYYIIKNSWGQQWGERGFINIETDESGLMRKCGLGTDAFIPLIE

As to `CN1CCN(C2CCN(Cc3ccc(C(=O)NN(c4nc(C#N)ncc4Br)C4CCOCC4)cc3)CC2)CC1` [Example 29, N'-(5-Bromo-2-cyano-4-pyrimidinyl)-4-{[4-(4-methyl-1-piperazinyl)-1-piperidinyl]methyl}-N'-(tetrahydro-2H-pyran-4-yl)benzohydrazide trifluoroacetate], the IC50 (on Falcipain-3; in experiment [1] (Plasmodium falciparum)) was 15 to 150 nM each time.

`CN1CCN(C(=O)C2CCN(Cc3ccc(C(=O)NN(c4nc(C#N)ncc4Cl)C4CCOCC4)cc3)CC2)CC1` [Example 36, N'-(5-Chloro-2-cyano-4-pyrimidinyl)-4-({4-[(4-methyl-1-piperazinyl)carbonyl]-1-piperidinyl}methyl)-N'-(tetrahydro-2H-pyran-4-yl)henzohydrazide trifluoroacetate]: the concentration for half-maximal inhibition (IC50) in experiment [1] (Plasmodium falciparum) fell in the range of 15 to 150 nM; against Falcipain-2 it was 1 to 2.5 nM.

`CC(=O)N1CCC(N(NC(=O)c2ccc(CN3CCN(C)CC3)cc2)c2nc(C#N)ncc2Br)CC1` [Example 37, N'-(1-acetyl-4-piperidinyl)-N'-(5-bromo-2-cyano-4-pyrimidinyl)-4-[(4-methyl-1-piperazinyl)methyl]benzohydrazide trifluoroacetate]: the IC50 at Falcipain-3 (setting [2]) was 15 to 150 nM; in experiment [1] (Plasmodium falciparum) it was 15 to 150 nM; at Falcipain-2 (setting [3]), less than 1 nM.

As for `CN1CCN(Cc2ccc(C(=O)NN(c3nc(C#N)ncc3Br)C3CCCC3)cc2)CC1` [Example 1, N'-(5-bromo-2-cyano-4-pyrimidinyl)-N'-cyclopentyl-4-[(4-methyl-1-piperazinyl)methyl]benzohydrazide trifluoroacetate], the IC50 (on Falcipain-3; in experiment [1] (Plasmodium falciparum)) was 15 to 150 nM throughout.

`CN1CCN(Cc2ccc(C(=O)NN(c3nc(C#N)ncc3Cl)C3CCCC3)cc2)CC1` [Example 50, N'-(5-chloro-2-cyano-4-pyrimidinyl)-N'-cyclopentyl-4-[(4-methyl-1-piperazinyl)methyl]benzohydrazide trifluoroacetate]: the figures for the IC50 (in experiment [1] (Plasmodium falciparum); against Falcipain-2) were 15 to 150 nM and 1 to 2.5 nM, respectively.

As for `CC(=O)N1CCC(N(NC(=O)c2ccc(CN3CCC(N4CCN(C)CC4)CC3)cc2)c2nc(C#N)ncc2Br)CC1` [Example 38, N'-(1-acetyl-4-piperidinyl)-N'-(5-bromo-2-cyano-4-pyrimidinyl)-4-{[4-(4-methyl-1-piperazinyl)-1-piperidinyl]methyl}benzohydrazide trifluoroacetate], the figures for the IC50 (at Falcipain-3; in experiment [1] (Plasmodium falciparum)) were 15 to 150 nM and 150 to 250 nM, respectively.

For `CN1CCN(Cc2ccc(C(=O)NN(c3nc(C#N)ncc3Br)C3CCOCC3)cc2)CC1` [Example 42, N'-(5-bromo-2-cyano-4-pyrimidinyl)-4-[(4-methyl-1-piperazinyl)methyl]-N'-(tetrahydro-2H-pyran-4-yl)benzohydrazide trifluoroacetate], the results for the IC50 (in experiment [1] (Plasmodium falciparum); at Falcipain-2) were 15 to 150 nM and 1 to 2.5 nM, respectively.

In turn, `CN1CCN(c2ncc(C(=O)NN(c3nc(C#N)ncc3Cl)C3CCCC3)s2)CC1` [Example 77] yielded an IC50 in experiment [1] of 15 to 150 nM.

`CN1CCCC(CN2CCN(Cc3cccc(C(=O)NN(c4nc(C#N)ncc4Br)C4CCCCC4)c3)CC2)C1` (stereo not shown) [Example 27, N'-(5-bromo-2-cyano-4-pyrimidinyl)-N'-cyclohexyl-3-({4-[(1-methyl-3-piperidinyl)methyl]-1-piperazinyl}methyl)benzohydrazide trifluoroacetate]: the IC50 in experiment [1] (Plasmodium falciparum) is 2.5 to 15 nM.

For the molecule `CN1CCN(Cc2ccc(C(=O)NN(CC(C)(C)C)c3nc(C#N)ncc3Br)cc2)CC1` [comparative Example 39, N'-(5-bromo-2-cyano-4-pyrimidinyl)-N'-(2,2-dimethylpropyl)-4-[(4-methyl-1-piperazinyl)methyl]benzohydrazide trifluoroacetate, reference compound], the IC50 in experiment [1] (Plasmodium falciparum) is greater than 400 nM.

On to `CN1CCC(CN2CCN(Cc3cccc(C(=O)NN(c4nc(C#N)ncc4Br)C4CCCC4)c3)CC2)CC1` [Example 15, N'-(5-bromo-2-cyano-4-pyrimidinyl)-N'-cyclopentyl-3-({4-[(1-methyl-4-piperidinyl)methyl]-1-piperazinyl}methyl)benzohydrazide trifluoroacetate], for which the values for the IC50 (against Falcipain-3; in experiment [1] (Plasmodium falciparum)) were 15 to 150 nM and 2.5 to 15 nM, respectively.

Consider `CC(C)CCN(C)Cc1ccc(C(=O)NN(c2nc(C#N)ncc2Cl)C2CCCC2)cc1` [Example 63, N'-(5-chloro-2-cyano-4-pyrimidinyl)-N'-cyclopentyl-4-{[methyl(3-methylbutyl)amino]methyl}benzohydrazide trifluoroacetate], for which the IC50 at Falcipain-3 (setting [2]) was 2.5 to 15 nM; in experiment [1] (Plasmodium falciparum), 2.5 to 15 nM; at Falcipain-2 (setting [3]), less than 1 nM.

In the case of `CN1CCN(Cc2ccc(C(=O)NN(c3nc(C#N)ncc3Cl)C3CCOCC3)cc2)CC1` [Example 67, N'-(5-chloro-2-cyano-4-pyrimidinyl)-4-[(4-methyl-1-piperazinyl)methyl]-N'-(tetrahydro-2H-pyran-4-yl)benzohydrazide trifluoroacetate], the IC50 in experiment [1] (Plasmodium falciparum) is 15 to 150 nM.

For `CC(=O)N1CCC(N(NC(=O)c2ccc(CN3CCC(C(=O)N4CCN(C)CC4)CC3)cc2)c2nc(C#N)ncc2Br)CC1` [Example 49, N'-(1-acetyl-4-piperidinyl)-N'-(5-bromo-2-cyano-4-pyrimidinyl)-4-({4-[(4-methyl-1-piperazinyl)carbonyl]-1-piperidinyl}methyl)benzohydrazide trifluoroacetate], in experiment [1] (Plasmodium falciparum), the IC50 was 15 to 150 nM.

By IC50 is commonly meant the concentration that inhibits the measured activity by half.
